Test results as given in patent publication US10821104B2, “Five-membered heterocyclic amides WNT pathway inhibitor” (SUZHOU SINOVENT PHARMACEUTICALS CO., LTD., priority 2015, dated 2020).
Like-named read-outs stand apart in the source and are kept apart here.

Columns and labels:
[1] = tested on: Wnt/β-catenin reporter (Super 8×TOPFLASH) in HEK293 cells cocultured with L-Wnt3a-expressing cells; experiment: 293T/TOPLUC-Wnt3a luciferase reporter gene assay; type: cell-based; conditions: read-out: IC50, inhibition of Wnt/β-catenin reporter gene readout
Method: In this assay, HEK293 cells harboring a luciferase-based Wnt/β-catenin reporter (Super 8×TOPFLASH) were cocultured with L-Wnt3a-expressing cells. 293T/TOPLUC-Wnt3a were incubated with small molecules for 24 h. The level of the Luciferase reporter gene was used as an indicator for Wnt ligand-driven, LEF/TCF-dependent transcriptional activities. IC50 is defined as the compound concentration at which 50% of luciferase reporter activity is inhibited.
Results: REX-P compounds were investigated on CrownBio Cell plateform to assay the activity of inhibiting Wnt/β-catenin reporter activity, results are shown in Table 3.

zebrafish axis formation = experiment: Effect of compounds on axis formation of zebrafish (zebrafish phenotype screening); type: in vivo, Zebrafish Danio rerio; conditions: embryos treated from 3 h to 48 h post fertilization, concentration at which 50% of axis formation is inhibited, read-out: IC50, inhibition of axis formation of zebrafish
Method: Method: Zebrafish embryos were collected after natural spawning. Embryos were treated from the 16 cell stage (3 hours post fertilization) with different concentration series 100 μM˜0.001 μM of the compound in 1% DMSO/fish water or with DMSO equivalent. The zebrafish were placed in a 6-well microplate at a density of 20 zebrafish per well with 3 mL of fish water. Zebrafish were incubated at 28.5° C. in the dark until 48 h post fertilization, then anesthetized, and imaged under a dissecting stereomicroscope installed with a high-speed video camera (JVC, Japan). Quantitative length of axis was performed with NIS-Elements D 3.1 soft and pixels data were expressed as mean±SEM. The effect of compound on axis formation of zebrafish was calculated based on the following formula: Inhibition on axis growth (%)=[1−Pixel(compound)/Pixel(vehicle)]×100%
(§1) Inhibition curves were generated using GraphPad Prism 6.0 (GraphPad Software Inc., San Diego Calif.) and IC50 was determined with logistic regression.

[2] = tested on: regeneration of zebrafish tailfin resected; experiment: Effect of compounds on tailfin regeneration of zebrafish (resected caudal fin); type: in vivo; conditions: Danio rerio; 3 d.p.f. zebrafish with resected caudal fins treated until 7 d.p.f.; read-out: IC50, inhibition of regeneration of zebrafish tailfin resected
Method: Method: Three days post fertilization (d.p.f) zebrafish with resected caudal fins were placed in water containing 1% DMSO carrier or compounds (10 μM˜0.001 μM) until 7 d.p.f. The zebrafish were placed in a 6-well microplate at a density of 15 zebrafish per well with 3 mL of fish water. Zebrafish were incubated at 28.5° C. in the dark until 7 d.p.f., then anesthetized, and imaged under a dissecting stereomicroscope installed with a high-speed video camera (JVC, Japan). Quantitative length of regeneration of tailfin was performed and pixels data were expressed as mean±SEM. The effect of compound on regeneration of tailfin of zebrafish was calculated based on the following formula: Drug inhibition on regeneration of tailfin (%)=[1−Pixel(compound)/Pixel(vehicle)]×100%.
as §1

[3] = In vivo PK in Balb/c mice
Method: (§2) Metabolic stability and pharmacokinetic characteristics of REX-P-7 were detected in human and mouse liver microsomes and in Balb/c mice, respectively.
Method of PK experiment: 18 male Balb/c mice were divided into 2 groups, 9 animals in each group. Group 1 was administered intravenously with REX-P-7 at a dose of 5 mg/kg. Group 2 was administered orally with REX-P-7 at a dose of 10 mg/kg. Blood samples (100 μL) for PK analysis were collected into EDTA microtainers (K2 EDTA, the final concentration in blood sample is 0.25 mg/mL) from retro orbital plexus at pre-dose, 0.083, 0.25, 0.5, 1, 2, 4, 8, 24 hours post-dosing for PO and IV groups. Immediately after collection, blood collection tubes were gently inverted at least 5 times, ensuring complete mixing, then immediately placed on ice. The blood was centrifuged at 8000 rpm for 5 min at 4° C. to separate the plasma from the blood cells. After separation, 35 μL plasma was transferred into clean tube labeled by the compound name, animal number and timepoint. Plasma was stored at −80° C. until analysis.

[4] = Metabolic stability in human liver microsomes; type: in vitro ADME
From the text: as §2

[5] = Metabolic stability in mouse liver microsomes; type: in vitro ADME
From the text: as §2

[6] = Homo sapiens, HEK293, 24 h incubation
[7] = Balb/c mice, summary of Table 4
[8] = IV dose 5 mg/kg, male Balb/c mice, plasma
[9] = PO dose 10 mg/kg, male Balb/c mice, plasma

Molecule | IC50 [2] [nM] | IC50 [1, 6] [nM] | IC50 (zebrafish axis formation; Danio rerio) [nM] | other results
5-(4-chlorophenyl)-N-((2′,3-dimethyl-[2,4′-bipyridin]-5-yl)methyl)thiazole-2-carboxamide [REX-P-13] |  |  |  | IC50 ([1]; 24 h incubation): > 1000 nM; IC50 (zebrafish axis formation): > 10000 nM
Cc1cc(-c2ncc(CC(=O)Nc3ccc(-c4cnccn4)cn3)cc2C)ccn1 [LGK-974, reference compound] | 462 | 0.574 | 583 | 
Cc1cc(-c2ncc(CNC(=O)c3cc(-c4ccccc4)nn3C)cc2C)ccn1 [REX-P-1, N-((2′,3-dimethyl-[2,4′-bipyridin]-5-yl)methyl)-1-methyl-3-phenyl-1H-pyrazole-5-carboxamide] |  | 92.6 | 29900 | 
Cc1cc(-c2ncc(CNC(=O)c3cc(-c4ccccc4)[nH]n3)cc2C)ccn1 [REX-P-2, N-((2′,3-dimethyl-[2,4′-bipyridin]-5-yl)methyl)-5-phenyl-1H-pyrazole-3-carboxamide] | 3910 | 1.76 | 8230 | 
Cc1cc(-c2ncc(CNC(=O)c3cnc(-c4ccccc4)s3)cc2C)ccn1 [REX-P-3, N-((2′,3-dimethyl-[2,4′-bipyridin]-5-yl)methyl)-2-phenylthiazole-5-carboxamide] | 84 | < 0.1 | 144 | 
Cc1cc(-c2ncc(CNC(=O)c3ncc(-c4ccccc4)s3)cc2C)ccn1 [REX-P-4, N-((2′,3-dimethyl-[2,4′-bipyridin]-5-yl)methyl)-5-phenylthiazole-2-carboxamide] |  | < 0.1 | 36.9 | 
Cc1cc(-c2ncc(CNC(=O)c3csc(-c4ccccc4)n3)cc2C)ccn1 [REX-P-5, N-((2′,3-dimethyl-[2,4′-bipyridin]-5-yl)methyl)-2-phenylthiazole-4-carboxamide] |  | > 1000 | > 40000 | 
Cc1cc(-c2ncc(CNC(=O)c3nc(-c4ccccc4)cs3)cc2C)ccn1 [REX-P-6, N-((2′,3-dimethyl-[2,4′-bipyridin]-5-yl)methyl)-4-phenylthiazole-2-carboxamide] |  | > 1000 | > 100000 | 
Cc1cc(-c2ncc(CNC(=O)c3cc(-c4ccccc4)on3)cc2C)ccn1 [REX-P-7, N-((2′,3-dimethyl-[2,4′-bipyridin]-5-yl)methyl)-5-phenylisoxazole-3-carboxamide] | 47 | 0.69 | 24 | bioavailability (in words) [3, 7]: good bioavailability; half-life (in words) [3, 7]: good half-life; CL (/F) ([3]; IV dose 5 mg/kg, male Balb/c mice): 2.83 mL/min/kg; AUC0-t/Dose [3, 8]: 5770 ng·h/mL; Cmax/Dose [3, 8]: 4167 ng/mL; AUC0-t/Dose [3, 9]: 2922 ng·h/mL; Cmax/Dose [3, 9]: 1923 ng/mL; half-life ([3]; mouse, plasma, IV dose 5 mg/kg, male Balb/c mice): 1.68 h; bioavailability ([3]; mouse, plasma, PO 10 mg/kg vs IV 5 mg/kg, male Balb/c mice): 50.6%; half-life ([3]; mouse, plasma, PO dose 10 mg/kg, male Balb/c mice): 1.62 h; Eh % (HLM) [4]: 56.7%; Eh % (MLM) [5]: 65%
Cc1cc(-c2ncc(CNC(=O)c3nnc(-c4ccccc4)s3)cc2C)ccn1 [REX-P-8, N-((2′,3-dimethyl-[2,4′-bipyridin]-5-yl)methyl)-5-phenyl-1,3,4-thiadiazole-2-carboxamide] | 27 | 1.92 | 21 | 
Cc1cc(-c2ncc(CNC(=O)c3cc(-c4ccccc4)n(C)n3)cc2C)ccn1 [REX-P-9, N-((2′,3-dimethyl-[2,4′-bipyridin]-5-yl)methyl)-1-methyl-5-phenyl-1H-pyrazole-3-carboxamide] |  | > 1000 | > 20000 | 
Cc1cc(-c2ncc(CNC(=O)c3ncc(-c4cccc(Cl)c4)s3)cc2C)ccn1 [REX-P-12, 5-(3-chlorophenyl)-N-((2′,3-dimethyl-[2,4′-bipyridin]-5-yl)methyl)thiazole-2-carboxamide] |  | 9.16 | > 100000 | 
Cc1cc(-c2ncc(CNC(=O)c3cc(-c4ccccn4)[nH]n3)cc2C)ccn1 [REX-P-16, N-((2′,3-dimethyl-[2,4′-bipyridin]-5-yl)methyl)-5-(pyridin-2-yl)-1H-pyrazole-3-carboxamide] |  | 16.8 | > 10000 | 
Cc1cc(-c2ncc(CNC(=O)c3cnc(-c4cccc(Cl)c4)s3)cc2C)ccn1 [REX-P-22, 2-(3-chlorophenyl)-N-((2′,3-dimethyl-[2,4′-bipyridin]-5-yl)methyl)thiazole-5-carboxamide] | 28 | 0.72 | 178 | 
Cc1cc(-c2ncc(CNC(=O)c3nnc(-c4cccc(Cl)c4)s3)cc2C)ccn1 [REX-P-45, 5-(3-chlorophenyl)-N-((2′,3-dimethyl-[2,4′-bipyridin]-5-yl)methyl)-1,3,4-thiadiazole-2-carboxamide] | 23 | 0.31 | 14 | 
Cc1cc(-c2ncc(CNC(=O)c3nnc(-c4cccc(F)c4)s3)cc2C)ccn1 [REX-P-46, N-((2′,3-dimethyl-[2,4′-bipyridin]-5-yl)methyl)-5-(3-fluorophenyl)-1,3,4-thiadiazole-2-carboxamide] | 16 | 0.125 | 10 | 
Cc1cc(-c2ncc(CNC(=O)c3nnc(-c4ccccn4)s3)cc2C)ccn1 [REX-P-47, N-((2′,3-dimethyl-[2,4′-bipyridin]-5-yl)methyl)-5-(pyridin-2-yl)-1,3,4-thiadiazole-2-carboxamide] | 207 | 0.673 | 163 | 
Cc1cc(-c2ncc(CNC(=O)c3nnc(-c4ncccc4F)s3)cc2C)ccn1 [REX-P-48, N-((2′,3-dimethyl-[2,4′-bipyridin]-5-yl)methyl)-5-(3-fluoropyridin-2-yl)-1,3,4-thiadiazole-2-carboxamide] | 721 |  | 896 | 
Cc1cc(-c2ncc(CNC(=O)c3nnc(-c4cncc(F)c4)s3)cc2C)ccn1 [REX-P-49, N-((2′,3-dimethyl-[2,4′-bipyridin]-5-yl)methyl)-5-(5-fluoropyridin-3-yl)-1,3,4-thiadiazole-2-carboxamide] | 137 | 0.248 | 52 | 
Cc1cc(-c2ncc(CNC(=O)c3nnc(-c4cccc(C)n4)s3)cc2C)ccn1 [REX-P-50, N-((2′,3-dimethyl-[2,4′-bipyridin]-5-yl)methyl)-5-(6-methylpyridin-2-yl)-1,3,4-thiadiazole-2-carboxamide] | 111 | 0.389 | 64 | 
Cc1cc(-c2ncc(CNC(=O)c3nnc(-c4ncccn4)s3)cc2C)ccn1 [REX-P-51, N-((2′,3-dimethyl-[2,4′-bipyridin]-5-yl)methyl)-5-(pyrimidin-2-yl)-1,3,4-thiadiazole-2-carboxamide] |  |  | > 10000 | 
Cc1cc(-c2ncc(CNC(=O)c3nnc(-c4cnccn4)s3)cc2C)ccn1 [REX-P-52, N-((2′,3-dimethyl-[2,4′-bipyridin]-5-yl)methyl)-5-(pyrazin-2-yl)-1,3,4-thiadiazole-2-carboxamide] | 746 | 1.38 | 640 | 
Cc1cc(-c2ncc(CNC(=O)c3nnc(-c4ncccc4C)s3)cc2C)ccn1 [REX-P-56, N-((2′,3-dimethyl-[2,4′-bipyridin]-5-yl)methyl)-5-(3-methylpyridin-2-yl)-1,3,4-thiadiazole-2-carboxamide] |  |  | 62 | 
